Source: US8497293B2, “Haloalkylsubstituted aryloxyalkylimidazolines for use as pesticides” (Syngenta Crop Protection LLC, priority 2007, dated 2013)
Where a name gives a salt, the structure may show the parent alone. Read-outs that look alike come from different tables or passages of the source.

Experiments:
[1] = test system: Myzus persicae (Green Peach Aphid); experiment: Myzus persicae pea seedling root (systemic) test; format: in vivo; conditions: 144 h, read-out: control (mortality)
Description: Roots of pea seedlings, infested with an aphid population of mixed ages, were placed directly in the test solutions of 24 ppm. 6 days after introduction, samples were checked for mortality. The following compounds gave 100% control: 1.001, 1.003, 1.016, 1.021, 1.022 and 1.024. The following compounds gave 80% control: 1.005, 1.019, 1.020 and 1.023.

[2] = test system: Myzus persicae (Green Peach Aphid); experiment: Myzus persicae sunflower leaf disc spray test; format: in vivo; conditions: foliar, 144 h, read-out: control (mortality)
Description: Sunflower leaf discs were placed on agar in a 24-well microtiter plate and sprayed with test solutions at an application rate of 200 ppm. After drying, the leaf discs were infested with an aphid population of mixed ages. After an incubation period of 6 DAT, samples were checked for mortality. The following compounds gave 100% control: 1.001, 1.003, 1.004, 1.005, 1.006, 1.007, 1.008, 1.016, 1.017, 1.019, 1.021, 1.023 and 1.024. The following compounds gave 80% control: 1.002 and 1.026. The following compounds gave 50% control: 1.010, 1.018, 1.025 and 1.027.

[3] = test system: Heliothis virescens (Tobacco Budworm); experiment: Heliothis virescens egg/larval test on artificial diet; format: in vivo; conditions: read-out: control (egg mortality, larval mortality, growth regulation)
Description: Eggs (0-24 h old) were placed in 24-well microtiter plate on artificial diet and treated with test solutions at an application rate of 200 ppm by pipetting. After an incubation period of 4 days, samples were checked for egg mortality, larval mortality, and growth regulation. The following compounds gave 100% control: 1.016, 1.020 and 1.024. The following compounds gave 80% control: 1.001, 1.003 and 1.022. The following compounds gave 50% control: 1.004, 1.007, and 1.014.

[4] = test system: Tetranychus urticae (Two-Spotted Spider Mite); experiment: Tetranychus urticae bean leaf disc spray test; format: in vivo; conditions: foliar, 192 h, read-out: control (egg mortality, larval mortality, adult mortality)
Description: Bean leaf discs on agar in 24-well microtiter plates wer sprayed with test solutions at an application rate of 200 ppm. After drying, the leaf discs are infested with mite populations of mixed ages. 8 days later, discs are checked for egg mortality, larval mortality, and adult mortality. The following compounds gave 100% control: 1.001, 1.003, 1.004, 1.005, 1.007, 1.016, 1.021, 1.022, 1.023, and 1.024. The following compounds gave 80% control: 1.019, 1.025 and 1.027.

[5] = 200 ppm by pipetting, eggs 0-24 h old on artificial diet, 4 days incubation

melting point | Structure (SMILES) | mortality at 24 ppm [1] | mortality at 200 ppm [2] | mortality at 200 ppm [3] | mortality at 200 ppm [4] | mortality at 200 ppm [3, 5]
127 to 133 °C | CCC(Oc1cccc(C(F)(F)F)c1C(F)(F)F)C1=NCCN1 (stereo not shown) | – | – | – | – | –
112 to 120 °C | CCCC(Oc1cccc(C(F)(F)F)c1S(C)(=O)=O)C1=NCCN1 (stereo not shown) | – | – | – | – | –
150 to 157 °C | CCC(Oc1cccc(C(F)(F)F)c1CO)C1=NCCN1 (stereo not shown) (as salt: chloride) | – | – | – | – | –
90 to 109 °C | CCCC(Oc1cccc(C(F)(F)F)c1SC)C1=NCCN1 (stereo not shown) (as salt: maleate) | – | – | – | – | –
185 to 187 °C | CCc1c(OC(CC)C2=NCCN2)cccc1C(F)(F)F (stereo not shown) (as salt: oxalate) | – | – | – | – | –
– | CCC(Oc1cccc(C(F)(F)F)c1C)C1=NCCN1 (stereo not shown) [Compound 1.001, 2-[1-(2-methyl-3-trifluoromethyl-phenoxy)-propyl]-4,5-dihydro-1H-imidazole] | 100% | 100% | 80% | 100% | –
– | CCC(Oc1cccc(C(F)(F)F)c1C(F)F)C1=NCCN1 (stereo not shown) [Compound 1.002] | – | 80% | – | – | –
– | CCCC(Oc1cccc(C(F)(F)F)c1C)C1=NCCN1 (stereo not shown) [Compound 1.003] | 100% | 100% | – | 100% | 80%
– | CCCCC(Oc1cccc(C(F)(F)F)c1C)C1=NCCN1 (stereo not shown) [Compound 1.004] | – | 100% | – | 100% | 50%
– | Cc1c(OC(C2=NCCN2)C(C)C)cccc1C(F)(F)F (stereo not shown) [Compound 1.005] | 80% | 100% | – | 100% | –
– | CCCC(Oc1cccc(C(F)F)c1C)C1=NCCN1 (stereo not shown) [Compound 1.016] | 100% | 100% | – | 100% | 100%
– | CCC(Oc1cccc(C(F)F)c1C1CC1)C1=NCCN1 (stereo not shown) [Compound 1.017] | – | 100% | – | – | –
– | CCCCC(Oc1cccc(C(F)F)c1C)C1=NCCN1 (stereo not shown) [Compound 1.019] | 80% | 100% | – | 80% | –
– | CCCCC(Oc1cccc(CF)c1C)C1=NCCN1 (stereo not shown) [Compound 1.020] | 80% | – | – | – | 100%
– | Cc1c(OC(C2=NCCN2)C(C)C)cccc1C(F)F (stereo not shown) [Compound 1.021] | 100% | 100% | – | 100% | –
– | CCC(Oc1cccc(CF)c1C)C1=NCCN1 (stereo not shown) [Compound 1.022] | 100% | – | 80% | 100% | –
– | CCC(Oc1cccc(C(F)F)c1C)C1=NCCN1 (stereo not shown) [Compound 1.023] | 80% | 100% | – | 100% | –
– | CCCC(Oc1cccc(CF)c1C)C1=NCCN1 (stereo not shown) [Compound 1.024] | 100% | 100% | – | 100% | 100%
